In patent publication US11708352B2, “Anti-cancer compounds” (THE REGENTS OF THE UNIVERSITY OF CALIFORNIA, priority 2015, dated 2023):

What was measured:
[1] = target: T1, PARP1 (Homo sapiens, UniProt P09874); assay: PARP enzymatic activity inhibition (Trevigen HT Universal PARP Assay Kit); format: biochemical
T1 construct: purchased Trevigen 4677-096-K
Procedure: PARP Enzymatic Activity Inhibition: Determination of IC50 Values for Selected Compounds (Data in FIG. 1)
(§1) The half maximal inhibitory concentration (IC50) with respect to PARP inhibition was determined for each test compound by using Trevigen's HT Universal PARP Assay Kit, according to the manufacturer's protocol (Cat #4677-096-K, Gaithersburg, Md.). This assay measures the incorporation of biotinylated poly(ADP-ribose) onto histone proteins in a 96-well strip well format. This assay is ideal for the determination of IC50 values of known or suspected PARP inhibitors. Briefly, stock solutions of each test compound were prepared in DMSO. Histone strip wells were incubated for 30 minutes at room temperature with 50 μl/well of 1×PARP Buffer to rehydrate the histones. Serial dilutions of either test compound were added to appropriate wells. Diluted PARP enzyme (0.5 Unit/well) was then added to the wells containing compounds, and incubated for 10 minutes at room temperature. Subsequently, 25 μl of 1×PARP Cocktail, containing activated DNA, was distributed into each well. Three types of control wells were also analyzed; i. A negative control without PARP was prepared to determine background absorbance. ii. An activity control for PARP Inhibitor Study: 0.5 Unit/well PARP-HSA without inhibitors. These wells provided the 100% activity reference point. iii. And a PARP Standard Curve: Serial dilution of the PARP-HAS standard were prepared in cold microtubes with 1×PARP Buffer such that the total activity is 1 Unit/25 μl, 0.5 Units/25 μl, 0.25 Units/25 μl, 0.1 Units/25 μl, 0.05 Units/25 μl, 0.025 Units/25 and 0.01 Units/25 μl. 25 μl of each standard was added to triplicate wells. Following a 60 minutes incubation at room temperature, the strip wells were washed twice with 1×PBS+0.1% Triton X-100, and twice with 1×PBS. For activity detection, 50 μl per well of diluted Strep-HRP was added, and then incubated at room temperature for 60 minutes. Subsequently, 50 μl per well of pre-warmed TACS-Sapphire™ colorimetric substrate was added followed by a 15 minutes incubation, in the dark, at room temperature. The reactions were then stopped by adding 50 μl per well of 0.2M HCl or 5% Phosphoric Acid and read the absorbance at 450 nm.
The IC50 values were determined by performing non-linear regression analysis fitting velocities and the logarithm of inhibitor concentrations to a sigmoidal dose response with a variable slope model using the GraphPad Prism 6.0 software.

[2] = target: ABL1 (Homo sapiens, UniProt P00519); assay: ABL kinase assay (Z'-LYTE biochemical kinase profiling); conditions: ATP 10 μM final
Procedure: ABL Kinase Assays (Data in FIG. 1)
The direct inhibitory effect of the test compounds on the ABL kinases activity was assessed using the Z′-LYTE biochemical kinase profiling assays (SelectScreen Kinase Profiling assays, Life Technologies). The Z′-LYTE biochemical assay employs a fluorescence-based, coupled-enzyme format and is based on the differential sensitivity of phosphorylated and non-phosphorylated peptides to proteolytic cleavage. The peptide substrate is labeled with two fluorophores (one at each end) that make up a FRET pair. In the primary reaction, the kinase transfers the gamma-phosphate of ATP to a single tyrosine, serine or threonine residue in a synthetic FRET-peptide. In the secondary reaction, a site-specific protease recognizes and cleaves non-phosphorylated FRET-peptides. Phosphorylation of FRET-peptides suppresses cleavage by the Development Reagent. Cleavage disrupts FRET between the donor and acceptor fluorophores on the FRET-peptide, whereas uncleaved, phosphorylated FRET-peptides maintain FRET. The extent of phosphorylation of the FRET-peptide can be calculated from the Emission Ratio between cleaved and uncleaved FRET-peptides. The Emission Ratio will remain low if the FRET-peptide is phosphorylated (i.e., no kinase inhibition) and will be high if the FRET-peptide is non-phosphorylated (i.e., kinase inhibition).
Using the above described assay, The Test Compounds were screened in 1% DMSO (final) in the well. 10 point titrations, 3-fold serial dilutions were conducted. Briefly, in a black 384-well plate serial dilutions of test compound or 100 nL 100× were mixed with kinase buffer peptide/Kinase Mixture and ATP Solution (10 μM final). After one hour Kinase Reaction incubation at room temperature, the development Reagent Solution was added. Subsequently, the fluorescence signals were measured using a fluorescence plate reader. Data were analyzed and the IC50 were calculated with XLfit graphing software using the sigmoidal dose-response model.

[3] = system: bovine brain tubulin; assay: Tubulin polymerization assay (Cytoskeleton kit BK011P); format: biochemical; conditions: % Inhibition versus control; compound concentration of 4 μM
Description: Tubulin Polymerization Assay (Data in FIG. 1)
The high-throughput screening-tubulin polymerization assay kit (Cytoskeleton, Cat. #BK011P) is an economical one step procedure for determining the effects of drugs or proteins on tubulin polymerization. Polymerization is followed by fluorescence enhancement due to the incorporation of a fluorescent reporter into microtubules as polymerization occurs. The standard assay tubulin generates a polymerization curve representing the three phases of microtubule formation, namely nucleation, growth, and steady state equilibrium. Compounds that interact with tubulin will often alter one or more of the characteristic phases of polymerization. For example, the anti-mitotic drug paclitaxel eliminates the nucleation phase and enhances the Vmax of the growth phase. Similarly, the microtubule destabilizing drug, vinblastine (also antimitotic) causes a decrease in Vmax and a reduction in final polymer mass. Thus, one application of this assay is the identification of novel anti-mitotics.
The direct effects of the test compounds on tubulin polymerization were investigated using the abovementioned Tubulin polymerization assay kit (Cytoskeleton, Cat. #BK011P), as indicated by the manufacturer protocol. Briefly, bovine brain tubulin (400 μg/sample) in the presence of either 0.5% DMSO treated (control), 4 μM test compounds, 3 μM paclitaxel (Cytoskeleton), or 3 μM vinblastine (Cytoskeleton) was incubated in PEM buffer [80 mm PIPES, 1 mm EGTA, 1 mm MgCl2 (pH 6.8)] containing 1.0 mm GTP (G-PEM) and 15% glycerol, at 37 C. All samples (wells) contained 15% glycerol. The degree of polymerization over time was measured in a spectrophotometer (Biotek synergy HT plate reader) at 350 nm. All time points were plotted and analyzed using GraphPad Prism 6.0 software.
DMSO control was set as 0% inhibition. Positive values depict the percentage of decrease in Vmax and final polymer mass, as compared to control. Negative values are inversely correlated to degree of nucleation phase elimination and the percentage of increase of the Vmax, as compared to control.

[4] = system: A549; assay: Cell viability assay in solid tumor cell lines (Cell-Titer Glo), A549; format: cell-based; conditions: Homo sapiens, 72 hours
Procedure: (§2) Cell Viability Assay in Solid Tumors Cell Lines (Data in FIG. 2)
(§3) Human cancer cell lines (lung, ovarian, breast pancreatic and mesothelioma) were purchased from the ATCC. The cell lines were cultured in RPMI 1640 (Life Technologies, Carlsbad, Calif.) supplemented with 10% fetal bovine serum (FBS) and antibiotics. […] At the end of treatment, cell proliferation was determined by an intracellular adenosine triphosphate monitoring system (Cell-Titer Glo-Promega).
(§4) Inhibitory activity was evaluated comparing treated versus control data using the GraphPad Prism 6.0 software.

[5] = system: OVCAR8; assay: Cell viability assay in solid tumor cell lines (Cell-Titer Glo), OVCAR8; format: cell-based; conditions: Homo sapiens, OVCAR-8, 72 hours
Procedure: as §2, §3, §4

[6] = target: PARP2 (Homo sapiens, UniProt Q9UGN5); assay: PARP enzymatic activity inhibition, PARP2 column; format: biochemical
Procedure: as §1, with “And a PARP Standard Curve: Serial dilution of the PARP-HAS standard were prepared in cold microtubes with 1×PARP Buffer such that the total activity is 1 Unit/25 μl, 0.5 Units/25 μl, 0.25 Units/25 μl, 0.1 Units/25 μl, 0.05 Units/25 μl, 0.025 Units/25 and 0.01 Units/25 μl. 25 μl of each standard was added to triplicate wells. Following a 60 minutes incubation at room temperature, the strip wells were washed twice with 1×PBS+0.1% Triton X-100, and twice with 1×PBS. For activity detection, 50 μl per well of diluted Strep-HRP was added, and then incubated at room temperature for 60 minutes. Subsequently, 50 μl per well of pre-warmed TACS-Sapphire™ colorimetric substrate was added followed by a 15 minutes incubation, in the dark, at room temperature.” left out

Chain of ABL1 (P00519 whole entry): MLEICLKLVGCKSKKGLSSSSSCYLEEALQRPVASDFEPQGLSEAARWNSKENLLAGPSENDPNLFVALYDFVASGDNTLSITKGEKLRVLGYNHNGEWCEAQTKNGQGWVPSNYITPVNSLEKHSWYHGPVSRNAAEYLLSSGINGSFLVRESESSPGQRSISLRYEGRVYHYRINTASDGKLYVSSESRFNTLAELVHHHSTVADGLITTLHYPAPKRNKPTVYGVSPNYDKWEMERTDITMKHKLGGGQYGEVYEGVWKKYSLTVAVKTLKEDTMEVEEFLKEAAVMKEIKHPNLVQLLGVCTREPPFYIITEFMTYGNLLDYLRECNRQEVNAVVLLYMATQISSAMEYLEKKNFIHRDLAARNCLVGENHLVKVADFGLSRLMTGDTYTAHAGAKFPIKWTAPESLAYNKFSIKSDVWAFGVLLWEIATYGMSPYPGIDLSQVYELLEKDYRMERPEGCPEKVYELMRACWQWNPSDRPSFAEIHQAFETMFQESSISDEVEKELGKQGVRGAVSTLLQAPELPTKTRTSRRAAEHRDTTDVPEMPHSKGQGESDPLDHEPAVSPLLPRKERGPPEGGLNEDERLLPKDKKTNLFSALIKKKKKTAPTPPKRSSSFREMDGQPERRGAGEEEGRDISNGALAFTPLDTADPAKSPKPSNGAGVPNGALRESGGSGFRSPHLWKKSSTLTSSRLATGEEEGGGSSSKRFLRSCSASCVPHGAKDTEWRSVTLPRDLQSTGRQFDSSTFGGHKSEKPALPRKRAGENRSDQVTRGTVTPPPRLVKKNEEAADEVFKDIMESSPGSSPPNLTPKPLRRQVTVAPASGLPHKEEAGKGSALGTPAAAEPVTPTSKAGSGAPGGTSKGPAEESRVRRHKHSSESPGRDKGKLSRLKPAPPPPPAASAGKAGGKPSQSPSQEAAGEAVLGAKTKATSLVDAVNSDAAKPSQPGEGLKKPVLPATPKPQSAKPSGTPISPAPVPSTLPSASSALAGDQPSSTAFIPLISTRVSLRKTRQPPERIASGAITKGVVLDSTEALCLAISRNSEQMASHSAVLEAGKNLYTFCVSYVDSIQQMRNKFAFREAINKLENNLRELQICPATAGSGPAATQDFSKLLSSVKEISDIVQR
T1 sequence (P09874 whole entry): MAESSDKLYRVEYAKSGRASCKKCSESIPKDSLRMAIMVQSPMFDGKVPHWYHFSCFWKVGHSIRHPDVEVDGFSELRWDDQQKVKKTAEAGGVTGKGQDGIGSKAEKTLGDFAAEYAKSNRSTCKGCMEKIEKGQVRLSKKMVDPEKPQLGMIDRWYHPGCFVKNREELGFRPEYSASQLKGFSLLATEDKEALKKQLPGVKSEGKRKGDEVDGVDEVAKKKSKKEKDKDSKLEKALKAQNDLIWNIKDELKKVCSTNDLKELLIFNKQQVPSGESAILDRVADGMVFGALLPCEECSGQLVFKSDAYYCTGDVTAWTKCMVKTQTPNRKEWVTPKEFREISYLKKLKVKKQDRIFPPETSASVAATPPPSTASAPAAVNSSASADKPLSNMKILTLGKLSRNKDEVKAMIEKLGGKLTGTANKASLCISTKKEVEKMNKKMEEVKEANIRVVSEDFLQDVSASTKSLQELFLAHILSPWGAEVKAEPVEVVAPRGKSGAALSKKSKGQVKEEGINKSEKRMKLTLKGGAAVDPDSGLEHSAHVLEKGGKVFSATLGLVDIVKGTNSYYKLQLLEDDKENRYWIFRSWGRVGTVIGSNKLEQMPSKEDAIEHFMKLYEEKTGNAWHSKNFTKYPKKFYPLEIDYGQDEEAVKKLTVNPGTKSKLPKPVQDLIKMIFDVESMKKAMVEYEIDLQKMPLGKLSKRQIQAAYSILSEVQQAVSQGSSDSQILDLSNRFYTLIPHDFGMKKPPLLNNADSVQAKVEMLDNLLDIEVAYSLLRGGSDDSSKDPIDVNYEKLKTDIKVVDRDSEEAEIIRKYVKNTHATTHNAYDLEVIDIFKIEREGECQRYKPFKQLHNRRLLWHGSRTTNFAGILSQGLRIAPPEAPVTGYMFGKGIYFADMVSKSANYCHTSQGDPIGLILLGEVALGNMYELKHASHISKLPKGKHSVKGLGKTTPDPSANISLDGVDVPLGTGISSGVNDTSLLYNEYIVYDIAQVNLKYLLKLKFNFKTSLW
Chain of PARP2 (Q9UGN5 whole entry, species assumed): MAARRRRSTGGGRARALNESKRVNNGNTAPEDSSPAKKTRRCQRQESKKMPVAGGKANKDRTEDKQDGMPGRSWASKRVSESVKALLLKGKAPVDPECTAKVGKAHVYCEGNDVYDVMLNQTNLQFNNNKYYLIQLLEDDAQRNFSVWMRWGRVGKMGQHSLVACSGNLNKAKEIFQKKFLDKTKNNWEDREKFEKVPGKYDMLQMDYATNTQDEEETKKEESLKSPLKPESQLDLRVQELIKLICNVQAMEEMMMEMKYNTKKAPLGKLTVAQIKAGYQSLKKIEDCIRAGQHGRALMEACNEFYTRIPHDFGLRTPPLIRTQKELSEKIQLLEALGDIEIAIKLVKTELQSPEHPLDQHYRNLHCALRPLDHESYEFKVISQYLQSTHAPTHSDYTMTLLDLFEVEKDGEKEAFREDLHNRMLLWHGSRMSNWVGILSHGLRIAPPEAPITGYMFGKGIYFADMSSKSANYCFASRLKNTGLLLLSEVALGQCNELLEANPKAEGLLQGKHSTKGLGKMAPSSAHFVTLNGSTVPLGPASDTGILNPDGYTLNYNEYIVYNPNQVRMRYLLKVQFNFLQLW

`COCCOC(=O)Nc1nc2cc(-c3n[nH]c(=O)c4ccccc34)ccc2[nH]1` [Compound No. 3, 2-Methoxyethyl (5-(4-oxo-3,4-dihydrophthalazin-1-yl)-1H-benzimidazol-2-yl)carbamate] was tested, and the IC50 [1] was 5 to 10 µM, the IC50 [2] was 0.5 to 1 µM and the “Tubulin Polymerization Inhibition” value [3] was “Y (Y = (% Inhibition versus control) ≤20%. Results with a compound concentration of 4 μM)”. The IC50 [4] was 1 to 5 µM and the IC50 [5] was 1 to 5 µM.

`CCCC(=O)Nc1nc2cc(-c3n[nH]c(=O)c4ccccc34)cc(Cl)c2[nH]1` [Compound No. 139, N-(7-chloro-5-(4-oxo-3,4-dihydrophthalazin-1-yl)-1H-benzimidazol-2-yl)butyramide] was tested, and the IC50 [2] was < 0.5 µM, the IC50 [4] was < 0.5 µM and the IC50 [5] was < 0.5 µM.

`CCOC(=O)Nc1nc2cc(-c3n[nH]c(=O)c4ccccc34)cc(C)c2[nH]1` [Compound No. 145, Ethyl (7-methyl-5-(4-oxo-3,4-dihydrophthalazin-1-yl)-1H-benzimidazol-2-yl)carbamate] was tested, and the IC50 [1] was > 10 µM, the IC50 [2] was 5 to 10 µM and the IC50 [4] was < 0.5 µM. For the same compound, the IC50 [5] was < 0.5 µM.

With `CCOC(=O)Nc1nc2cc(-c3n[nH]c(=O)c4ccccc34)cc(Cl)c2[nH]1` [Compound No. 135, Ethyl (7-chloro-5-(4-oxo-3,4-dihydrophthalazin-1-yl)-1H-benzimidazol-2-yl)carbamate] the IC50 [1] was 1 to 5 µM, the IC50 [2] was < 0.5 µM and the IC50 [4] was < 0.5 µM. For the same compound, the IC50 [5] was < 0.5 µM.

`CCNC(=O)Nc1nc2cc(-c3n[nH]c(=O)c4ccccc34)ccc2[nH]1` [Compound No. 80, 1-Ethyl-3-(5-(4-oxo-3,4-dihydrophthalazin-1-yl)-1H-benzimidazol-2-yl)urea] was tested, and the IC50 [1] was > 10 µM, the IC50 [2] was < 0.5 µM and the IC50 [4] was 1 to 5 µM. It also gave an IC50 [5] of 1 to 5 µM.

With `COC(=O)Nc1nc2cc(-c3n[nH]c(=O)c4ccccc34)ccc2[nH]1` [Compound No. 2, Methyl (5-(4-oxo-3,4-dihydrophthalazin-1-yl)-1H-benzimidazol-2-yl)carbamate] the IC50 [1] was > 10 µM, the IC50 [2] was 0.5 to 1 µM and the “Tubulin Polymerization Inhibition” value [3] was “X (X = (% Inhibition versus control) <20%. Results with a compound concentration of 4 μM)”. The IC50 [4] was 1 to 5 µM and the IC50 [5] was 1 to 5 µM.

With `CCOC(=O)Nc1nc2cc(-c3n[nH]c(=O)c4ccc(F)cc34)ccc2[nH]1` [Compound No. 9, Ethyl (5-(7-fluoro-4-oxo-3,4-dihydrophthalazin-1-yl)-1H-benzimidazol-2-yl)carbamate] the IC50 [1] was > 10 µM, the IC50 [2] was < 0.5 µM and the IC50 [4] was < 0.5 µM. The IC50 [5] was < 0.5 µM.

`CCOC(=O)Nc1nc2cc(-c3n[nH]c(=O)c4ccc(Cl)cc34)ccc2[nH]1` [Compound No. 21, Ethyl (5-(7-chloro-4-oxo-3,4-dihydrophthalazin-1-yl)-1H-benzimidazol-2-yl)carbamate] was tested, and the IC50 [1] was > 10 µM, the IC50 [2] was < 0.5 µM and the IC50 [4] was 0.5 to 1 µM. It also gave an IC50 [5] of 0.5 to 1 µM.

With `CCOC(=O)Nc1nc2cc(-c3n[nH]c(=O)c4cc(Cl)c(Cl)cc34)ccc2[nH]1` [Compound No. 23, Ethyl (5-(6,7-dichloro-4-oxo-3,4-dihydrophthalazin-1-yl)-1H-benzimidazol-2-yl)carbamate] the IC50 [1] was 1 to 5 µM, the IC50 [2] was < 0.5 µM and the IC50 [4] was 0.5 to 1 µM. For the same compound, the IC50 [5] was < 0.5 µM.

In the case of `CCCC(=O)Nc1nc2cc(-c3n[nH]c(=O)c4ccccc34)ccc2[nH]1` [Compound No. 86, N-(5-(4-oxo-3,4-dihydrophthalazin-1-yl)-1H-benzimidazol-2-yl)butyramide], the IC50 [1] is reported as 5 to 10 µM, the IC50 [2] is reported as < 0.5 µM and the IC50 [4] is reported as < 0.5 µM. For the same compound, the IC50 [5] was < 0.5 µM.

With `CCOC(=O)Nc1nc2cc(-c3n[nH]c(=O)c4cccc(Cl)c34)ccc2[nH]1` [Compound No. 20, Ethyl (5-(8-chloro-4-oxo-3,4-dihydrophthalazin-1-yl)-1H-benzimidazol-2-yl)carbamate] the IC50 [1] was > 10 µM, the IC50 [2] was 0.5 to 1 µM and the IC50 [4] was 1 to 5 µM. For the same compound, the IC50 [5] was 0.5 to 1 µM.

`CCOC(=O)Nc1nc2cc(-c3n[nH]c(=O)c4ccccc34)cc(Br)c2[nH]1` [Compound No. 140, Ethyl (7-bromo-5-(4-oxo-3,4-dihydrophthalazin-1-yl)-1H-benzimidazol-2-yl)carbamate] was tested, and the IC50 [1] was 5 to 10 µM, the IC50 [2] was < 0.5 µM and the IC50 [4] was < 0.5 µM. For the same compound, the IC50 [5] was < 0.5 µM.

`CCOC(=O)Nc1nc2cc(-c3n[nH]c(=O)c4ccccc34)ccc2[nH]1` [Compound No. 1, Ethyl (5-(4-oxo-3,4-dihydrophthalazin-1-yl)-1H-benzimidazol-2-yl)carbamate] was tested, and the IC50 [1] was 5 to 10 µM, the IC50 [6] was < 0.5 µM and the IC50 [2] was < 0.5 µM. For the same compound, the “Tubulin Polymerization Inhibition” value [3] was “Y (Y = (% Inhibition versus control) ≤20%. Results with a compound concentration of 4 μM)”, the IC50 [4] was < 0.5 µM and the IC50 [5] was < 0.5 µM.

`CCOC(=O)Nc1nc2cc(-c3n[nH]c(=O)c4cc(F)c(F)cc34)ccc2[nH]1` [Compound No. 11, Ethyl (5-(6,7-difluoro-4-oxo-3,4-dihydrophthalazin-1-yl)-1H-benzimidazol-2-yl)carbamate] was tested, and the IC50 [1] was > 10 µM, the IC50 [2] was < 0.5 µM and the IC50 [4] was < 0.5 µM. For the same compound, the IC50 [5] was < 0.5 µM.
